Laboratory results taken from patent US9511058B2, “Methods for using carboxamide, sulfonamide and amine compounds” (Rigel Pharmaceuticals, Inc., priority 2010, dated 2016).
Where a name gives a salt, the structure may show the parent alone.

Each compound was assayed against AMPK (assay: AMPK activation, enzyme-linked immunosorbent assay). Details: compounds of Table 1 (Table 6).
Assay type: biochemical

SMILES | EC50 [nM]
Fc1ccc(CN2CCC(NC3CCc4cc(OC5CCN(c6ccc(C(F)(F)F)cc6)CC5)ccc43)CC2)cc1 (stereo not drawn) [1-159, 1-(4-fluorobenzyl)-N-(5-(1-(4-(trifluoromethyl)phenyl)piperidin-4-yloxy)-2,3-dihydro-1H-inden-1-yl)piperidin-4-amine] | 100 to 500
CC(C)(C)OC(=O)N1CCC(NC2CCc3cc(OC4CCN(c5ccc(C(F)(F)F)cc5)CC4)ccc32)CC1 (stereo not drawn) [1-156, tert-butyl 4-(5-(1-(4-(trifluoromethyl)phenyl)piperidin-4-yloxy)-2,3-dihydro-1H-inden-1-ylamino)piperidine-1-carboxylate] | 100 to 500
O=C(NC1CCNCC1)c1cc2ccc(OC3CCN(c4ccc(C(F)(F)F)cc4)CC3)cc2o1 [1-84, N-(piperidin-4-yl)-6-(1-(4-(trifluoromethyl)phenyl)piperidin-4-yloxy)benzofuran-2-carboxamide] | 5000 to 10000
O=C(NC1CCN(Cc2ccc(F)cc2)CC1)c1cc2ccc(OC3CCN(c4ccc(OC(F)(F)F)cc4)CC3)cc2o1 [1-94, N-(1-(4-fluorobenzyl)piperidin-4-yl)-6-(1-(4-(trifluoromethoxy)phenyl)piperidin-4-yloxy)benzofuran-2-carboxamide] | < 100
O=C(NC1CCN(Cc2ccncc2)CC1)c1cc2cc(OC3CCN(c4ccc(OC(F)(F)F)cc4)CC3)ccc2o1 [1-78, N-(1-(pyridin-4-ylmethyl)piperidin-4-yl)-5-(1-(4-(trifluoromethoxy)phenyl)piperidin-4-yloxy)benzofuran-2-carboxamide] | < 100
Cc1c(C(=O)NC2CCN(Cc3cccnc3)CC2)oc2cc(OC3CCN(c4ccc(C(F)(F)F)cc4)CC3)ccc12 [1-69, 3-methyl-N-(1-(pyridin-3-ylmethyl)piperidin-4-yl)-6-(1-(4-(trifluoromethyl)phenyl)piperidin-4-yloxy)benzofuran-2-carboxamide] | < 100
O=S(=O)(NC1CCN(Cc2cccc(C(F)(F)F)c2)CC1)c1ccc(OC2CCN(c3ccc(C(F)(F)F)cc3)CC2)nc1 [1-59, N-(1-(3-(trifluoromethyl)benzyl)piperidin-4-yl)-6-(1-(4-(trifluoromethyl)phenyl)piperidin-4-yloxy)pyridine-3-sulfonamide] | 100 to 500
N#Cc1ccc(CN2CCC(NC(=O)c3ccc(OC4CCN(c5ccc(C(F)(F)F)cc5)CC4)cn3)CC2)cc1 [1-4, N-(1-(4-cyanobenzyl)piperidin-4-yl)-5-(1-(4-(trifluoromethyl)phenyl)piperidin-4-yloxy)picolinamide] | < 100
O=C(NC1CCNCC1)c1sc2cc(OC3CCN(c4ccc(C(F)(F)F)cc4)CC3)ccc2c1Cl [1-148, 3-chloro-N-(piperidin-4-yl)-6-(1-(4-(trifluoromethyl)phenyl)piperidin-4-yloxy)benzo[b]thiophene-2-carboxamide] | > 10000
Cc1c(C(=O)NC2CCN(Cc3ccc(F)cc3)CC2)oc2cc(OC3CCN(c4ccc(C(F)(F)F)cc4)CC3)ccc12 [1-63, N-(1-(4-fluorobenzyl)piperidin-4-yl)-3-methyl-6-(1-(4-(trifluoromethyl)phenyl)piperidin-4-yloxy)benzofuran-2-carboxamide] | < 100
O=C(NC1CCN(Cc2ccccc2)CC1)c1ccc(OC2CCN(c3ccc(C(F)(F)F)cc3)CC2)cn1 [1-38, N-(1-benzylpiperidin-4-yl)-5-(1-(4-(trifluoromethyl)phenyl)piperidin-4-yloxy)picolinamide] | 1000 to 5000
FC(F)(F)c1ccc(N2CCC(Oc3ccc4c(c3)CCC4NC3CCN(Cc4ccncc4)CC3)CC2)cc1 (stereo not drawn) [1-158, 1-(pyridin-4-ylmethyl)-N-(5-(1-(4-(trifluoromethyl)phenyl)piperidin-4-yloxy)-2,3-dihydro-1H-inden-1-yl)piperidin-4-amine] | 100 to 500
CC(C)(C)OC(=O)N1CC[C@@H](NC(=O)c2cc3cc(OC4CCN(c5ccc(C(F)(F)F)cc5)CC4)ccc3o2)C1 [1-120, (R)-tert-butyl 3-(5-(1-(4-(trifluoromethyl)phenyl)piperidin-4-yloxy)benzofuran-2-carboxamido)pyrrolidine-1-carboxylate] | 1000 to 5000
O=C(NC1CCN(Cc2ccc(F)cc2)CC1)c1ccc(OC2CCN(c3ccc(C(F)(F)F)cc3)CC2)nc1 [1-11, N-(1-(4-fluorobenzyl)piperidin-4-yl)-6-(1-(4-(trifluoromethyl)phenyl)piperidin-4-yloxy)nicotinamide] | < 100

Same assay, conditions: compounds of Table 1 (Table 6), formate salt

SMILES | EC50 [nM]
O=C(NC1CCN(Cc2ccncc2)CC1)c1cc2cc(OC3CCN(c4ccc(C(F)(F)F)cc4)CC3)ccc2o1 [1-105, N-(1-(pyridin-4-ylmethyl)piperidin-4-yl)-5-(1-(4-(trifluoromethyl)phenyl)piperidin-4-yloxy)benzofuran-2-carboxamide, formate salt] | < 100

Same assay, conditions: compounds of Table 2 (Table 7)

SMILES | EC50 [nM]
O=C(NC1CCN(C(=O)c2ccncc2)CC1)c1ccc2[nH]c3c(c2c1)CN(Cc1ccc(C(F)(F)F)cc1)CC3 [2-51, N-(1-isonicotinoyl-piperidin-4-yl)-2-(4-(trifluoromethyl)benzyl)-2,3,4,5-tetrahydro-1H-pyrido [4,3-b]indole-8-carboxamide] | 500 to 1000
N#Cc1ccc(CN2CCC(NC(=O)c3ccc4[nH]c5c(c4c3)CN(S(=O)(=O)c3ccc(C(F)(F)F)cc3)CC5)CC2)cc1 [2-24, N-(1-(4-cyanobenzyl)piperidin-4-yl)-2-(4-(trifluoromethyl)phenylsulfonyl)-2,3,4,5-tetrahydro-1H-pyrido [4,3-b]indole-8-carboxamide] | 1000 to 5000
O=C(NC1CCN(c2ccc(F)cc2)CC1)c1ccc2[nH]c3c(c2c1)CN(Cc1ccc(C(F)(F)F)cc1)CC3 [2-15, N-(1-(4-fluorophenyl)piperidin-4-yl)-2-(4-(trifluoromethyl)benzyl)-2,3,4,5-tetrahydro-1H-pyrido[4,3-b]indole-8-carboxamide] | < 500
O=C(NC1CCN(Cc2cccnc2)CC1)c1ccc2[nH]c3c(c2c1)CN(Cc1ccc(F)cc1)CC3 [2-8, 2-(4-fluorobenzyl)-N-(1-(pyridin-3-ylmethyl)piperidin-4-yl)-2,3,4,5-tetrahydro-1H-pyrido[4,3-b]indole-8-carboxamide] | 5000 to 10000
NC(=O)c1ccc(CN2CCc3[nH]c4ccc(C(=O)NC5CCN(Cc6ccncc6)CC5)cc4c3C2)cc1 [2-45, 2-(4-carbamoylbenzyl)-N-(1-(pyridin-4-ylmethyl)piperidin-4-yl)-2,3,4,5-tetrahydro-1H-pyrido [4,3-b]indole-8-carboxamide] | > 100000
O=C(NC1CCN(Cc2ccccc2)CC1)c1ccc2[nH]c3c(c2c1)CN(S(=O)(=O)c1ccc(C(F)(F)F)cc1)CC3 [2-19, N-(1-benzylpiperidin-4-yl)-2-(4-(trifluoromethyl)phenylsulfonyl)-2,3,4,5 - tetrahydro-1H-pyrido[4,3-b]indole-8-carboxamide] | > 100000
O=C(NC1CCN(CCc2ccccc2)CC1)c1ccc2[nH]c3c(c2c1)CN(Cc1ccc(C(F)(F)F)cc1)CC3 [2-14, N-(1-phenethyl-piperidin-4-yl)-2-(4-(trifluoromethyl)benzyl)-2,3,4,5-tetrahydro-1H-pyrido[4,3-b]indole-8-carboxamide] | < 500
O=C(NC1CCN(S(=O)(=O)c2ccc(F)cc2)CC1)c1ccc2[nH]c3c(c2c1)CN(c1ccc(F)cc1)CC3 [2-35, 2-(4-fluorophenyl)-N-(1-(4-fluorophenylsulfonyl)piperidin-4-yl)-2,3,4,5-tetrahydro-1H-pyrido[4,3-b]indole-8-carboxamide] | 10000 to 50000
O=C(NC1CCN(S(=O)(=O)c2ccc(Cl)cc2)CC1)c1ccc2[nH]c3c(c2c1)CN(Cc1ccc(C(F)(F)F)cc1)CC3 [2-32, N-(1-(4-chlorophenyl-sulfonyl)piperidin-4-yl)-2-(4-(trifluoro-methyl)benzyl)-2,3,4,5-tetrahydro-1H-pyrido [4,3-b]indole-8-carboxamide] | 1000 to 5000

Same assay, conditions: compounds of Table 3 (Table 8)

SMILES | EC50 [nM]
N#Cc1ccc(CN2CCC(NC(=O)c3ccc4c(c3)CN(Cc3ccc(C#N)cc3)CC4)CC2)cc1 [3-37, 2-(4-cyanobenzyl)-N-(1-(4-cyanobenzyl)piperidin-4-yl)-1,2,3,4-tetrahydroisoquinoline-7-carboxamide] | < 100
N#Cc1ccc(CN2CCC(NC(=O)c3ccc(C(=O)N4CCN(c5ccc(Cl)cc5)CC4)cc3)CC2)cc1 [3-29, 4-(4-(4-chlorophenyl)piperazine-1-carbonyl)-N-(1-(4-cyanobenzyl)piperidin-4-yl)benzamide] | 10000 to 100000

Same assay, conditions: compounds of Table 4 (Table 9)

SMILES | EC50 [nM]
O=C(N[C@H]1CCN(Cc2ccc(F)cc2)C1)c1ccc(C(=O)N2CCN(c3ccc(Cl)cc3)CC2)cn1 [4-4, (S)-5-(4-(4-chlorophenyl)piperazine-1-carbonyl)-N-(1-(4-fluorobenzyl)pyrrolidin-3-yl)picolinamide] | 1000 to 5000
N#Cc1ccc(CN2CCC(NC(=O)c3ccc(C(=O)N4CCN(Cc5ccc(C(F)(F)F)cc5)CC4)cn3)CC2)cc1 [4-3, N-(1-(4-cyanobenzyl)piperidin-4-yl)-5-(4-(4-(trifluoromethyl)benzyl)piperazine-1-carbonyl)picolinamide] | < 500

Same assay, conditions: compounds of Table 5 (Table 10)

SMILES | EC50 [nM]
COc1ccc(CN2CCC(Oc3ccc(C(=O)NCCCN4CCOCC4)cc3Cl)CC2)cc1 [5-101, 3-chloro-4-(1-(4-methoxybenzyl)piperidin-4-yloxy)-N-(3-morpholinopropyl)benzamide] | 10000 to 20000
COc1ccc(CN2CCC(Oc3ccc(C(=O)NCCCNC(=O)OC(C)(C)C)cc3Cl)CC2)cc1 [5-97, tert-butyl 3-(3-chloro-4-(1-(4-methoxybenzyl)piperidin-4-yloxy)benzamido)propylcarbamate] | 1000 to 10000
Cc1ccc(CN2CCC(Oc3ccc(C(=O)NC4CCN(Cc5ccc(Cl)cc5)CC4)cc3F)CC2)cc1 [5-73, N-(1-(4-chlorobenzyl)piperidin-4-yl)-3-fluoro-4-(1-(4-methylbenzyl)piperidin-4-yloxy)benzamide] | < 1000
O=C(NC1CCN(Cc2cccnc2)CC1)c1ccc(OC2CCN(c3ccc(C(F)(F)F)cc3)CC2)c(F)c1 [5-29, 3-fluoro-N-(1-(pyridin-3-ylmethyl)piperidin-4-yl)-4-(1-(4-(trifluoromethyl)phenyl)piperidin-4-yloxy)benzamide] | < 1000
N#Cc1ccc(CN2CCC(NC(=O)c3ccc(OC4CCN(c5ccc(C(F)(F)F)cc5)CC4)c(F)c3)CC2)cc1 [5-43, N-(1-(4-cyanobenzyl)piperidin-4-yl)-3-fluoro-4-(1-(4-(trifluoromethyl)phenyl)piperidin-4-yloxy)benzamide] | < 1000
